Experimental data: patent US12129246B1, “Hydroquinazoline derivatives for the treatment of a disease or disorder” (Novartis AG, priority 2023, dated 2024)
Where two headings read alike, the source gives them in different places.

Columns and labels:
monkey NPR1 = monkey NPR1 (Macaca fascicularis, UniProt A0A7N9DBT9); test: Cellular cGMP production assay, monkey NPR1 expressing CHO-K1 cells (CisBio HTRF); format: cell-based; settings: for Monkey NPR1 Amax (% of ANP): maximum cGMP production as percentage of the maximum cGMP produced with ANP
Procedure: Cellular cGMP is a major second messenger that mediates cell activities and is synthesized by activated NPR1 triggered by binding of the natural ligand ANP. […] The assay was performed according to manufacturer's instructions with minor deviations. […] All compound stocks were diluted in PBS+0.1% BSA at 2-fold the final assay concentration. After addition of 10 μL/well of assay buffer (PBS+0.1% BSA+1 mM IBMX) and 10 μL/well of the compounds in different concentrations (12-point dose-response with 3-fold dilutions from a top concentration of 30 μM), the plate was incubated for 30 min at 37° C. to allow for cGMP production. In parallel, a standard curve using a calibrator (contained in the kit) was generated. The cells were lysed and a mix of cGMP-d2 and anti-cGMP-cryptate was added and incubated for 1 h at room temperature. The readout was performed using an Envision plate reader (PerkinElmer) with an excitation wavelength of 317 nm and an emission wavelength of 665 nm. cGMP concentration (Delta F [° %]) was calculated according to the following formulae: […]

human NPR1 = biological target: T1, human NPR1 (Homo sapiens, UniProt P16066); test: Cellular cGMP production assay, human NPR1 expressing CHO-K1 cells (CisBio HTRF); format: cell-based; settings: for AC50: cGMP production, 30 min at 37° C., 12-point dose-response from 30 μM; for Human NPR1 Amax (% of ANP): maximum cGMP production as percentage of the maximum cGMP produced with ANP
T1 construct: host or cells: CHO-K1
T1 sequence (P16066 33-1061): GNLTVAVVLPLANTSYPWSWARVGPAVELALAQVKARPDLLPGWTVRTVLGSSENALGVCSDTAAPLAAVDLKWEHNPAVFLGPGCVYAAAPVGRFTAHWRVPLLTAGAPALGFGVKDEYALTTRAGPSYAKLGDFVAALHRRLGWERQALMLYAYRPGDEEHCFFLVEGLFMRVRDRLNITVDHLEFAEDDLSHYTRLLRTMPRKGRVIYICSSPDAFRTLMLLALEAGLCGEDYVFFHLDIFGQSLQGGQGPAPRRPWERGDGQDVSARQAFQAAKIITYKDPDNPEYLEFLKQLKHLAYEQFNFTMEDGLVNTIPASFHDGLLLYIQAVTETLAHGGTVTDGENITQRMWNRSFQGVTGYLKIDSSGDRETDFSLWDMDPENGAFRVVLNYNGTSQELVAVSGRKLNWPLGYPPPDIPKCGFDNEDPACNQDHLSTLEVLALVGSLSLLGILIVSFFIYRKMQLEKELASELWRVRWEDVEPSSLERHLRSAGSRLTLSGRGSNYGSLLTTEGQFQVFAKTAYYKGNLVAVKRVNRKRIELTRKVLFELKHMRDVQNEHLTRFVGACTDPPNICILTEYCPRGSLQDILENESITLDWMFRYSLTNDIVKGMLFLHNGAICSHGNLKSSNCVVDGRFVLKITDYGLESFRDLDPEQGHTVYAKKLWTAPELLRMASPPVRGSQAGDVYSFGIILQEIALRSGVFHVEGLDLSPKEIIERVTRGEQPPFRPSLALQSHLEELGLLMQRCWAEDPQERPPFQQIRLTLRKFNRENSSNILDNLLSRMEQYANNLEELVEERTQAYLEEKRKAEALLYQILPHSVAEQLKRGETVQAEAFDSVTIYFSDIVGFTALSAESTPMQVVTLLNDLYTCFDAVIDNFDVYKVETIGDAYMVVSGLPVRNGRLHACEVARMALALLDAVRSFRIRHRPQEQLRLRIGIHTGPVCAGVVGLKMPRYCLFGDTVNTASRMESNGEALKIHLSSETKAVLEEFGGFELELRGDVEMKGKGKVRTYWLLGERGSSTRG
Outline: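 12-pt 3-fold dose-response, top 30 μM; buffer PBS + 0.1% BSA + 1 mM IBMX (PDE inhibitor); 30 min, 37 °C. Lyse, add cGMP-d2 + anti-cGMP-cryptate, 1 h RT. Ex 317 / em 665 nm; Delta F converted to cGMP via calibrator standard curve.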

[1] = cGMP production, monkey NPR1 CHO-K1 cells, 30 min at 37° C., 12-point dose-response from 30 μM, read-out: Monkey NPR1 AC50

Chain of monkey NPR1 (A0A7N9DBT9 entry or part of it): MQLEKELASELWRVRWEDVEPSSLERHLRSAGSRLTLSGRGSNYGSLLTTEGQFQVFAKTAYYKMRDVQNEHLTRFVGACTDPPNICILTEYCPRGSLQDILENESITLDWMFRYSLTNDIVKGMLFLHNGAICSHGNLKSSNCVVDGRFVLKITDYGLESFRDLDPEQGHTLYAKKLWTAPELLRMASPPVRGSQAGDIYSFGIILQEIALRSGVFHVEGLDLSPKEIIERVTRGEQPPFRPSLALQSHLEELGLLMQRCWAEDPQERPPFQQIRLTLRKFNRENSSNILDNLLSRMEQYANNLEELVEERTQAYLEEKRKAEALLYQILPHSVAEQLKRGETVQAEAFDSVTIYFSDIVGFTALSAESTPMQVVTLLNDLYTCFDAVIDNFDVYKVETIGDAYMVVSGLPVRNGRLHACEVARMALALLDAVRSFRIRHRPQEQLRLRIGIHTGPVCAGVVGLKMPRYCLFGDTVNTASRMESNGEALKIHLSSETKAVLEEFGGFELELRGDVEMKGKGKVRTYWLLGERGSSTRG

SMILES | AC50 (monkey NPR1) [nM] | Monkey NPR1 Amax (% of ANP) (monkey NPR1; monkey NPR1 CHO-K1 cells) | AC50 (human NPR1) [nM] | Human NPR1 Amax (% of ANP) (human NPR1) | AC50 (monkey NPR1; [1]) [nM]
CC[C@@H](N(C)c1nc2c(c(N[C@@H](CN3C4CCCC3CC4)c3sc(C)nc3C)n1)C[C@H](c1cccc(F)c1)CC2)C12CC(C(=O)O)(C1)C2 [Compound 111, 3-((1R)-1-(((6R)-4-(((1S)-2-(8-azabicyclo[3.2.1]octan-8-yl)-1-(2,4-dimethylthiazol-5-yl)ethyl)amino)-6-(3-fluorophenyl)-5,6,7,8-tetrahydroquinazolin-2-yl)(methyl)amino)propyl)bicyclo[1.1.1]pentane-1-carboxylic acid] | 271 | 103.264 % of ANP | 424 | 106.085 % of ANP | –
CC[C@@H](Nc1nc2c(c(N[C@@H](CN3C4CCCC3CCC4)c3cnn(CC)c3)n1)C[C@H](c1cccc(F)c1)CC2)[C@H]1CC[C@H](C(=O)O)CC1 [Compound 17, (1R,4r)-4-((R)-1-(((R)-4-(((R)-2-((1S,5S)-9-azabicyclo[3.3.1]nonan-9-yl)-1-(1-ethyl-1H-pyrazol-4-yl)ethyl)amino)-6-(3-fluorophenyl)-5,6,7,8-tetrahydroquinazolin-2-yl)amino)propyl)cyclohexane-1-carboxylic acid] | 68 | 99.682 % of ANP | 105 | 97.959 % of ANP | –
CC[C@H]([C@H]1CC[C@H](C(=O)O)CC1)N(C)c1nc2c(c(N[C@@H](CN3CCC[C@H](O)C3)c3cnn(C)c3)n1)C[C@H](c1ccccc1)CC2 [Compound 129, (1R,4r)-4-((R)-1-(((R)-4-(((R)-2-((S)-3-hydroxypiperidin-1-yl)-1-(1-methyl-1H-pyrazol-4-yl)ethyl)amino)-6-phenyl-5,6,7,8-tetrahydroquinazolin-2-yl)(methyl)amino)propyl)cyclohexane-1-carboxylic acid] | – | 91.227 % of ANP | 646 | 93.751 % of ANP | 362
CC[C@H]([C@H]1CC[C@H](C(=O)O)CC1)N(C)c1nc2c(c(N[C@@H](CN3C[C@H]4C[C@@H](C3)C4O)c3cnn(C)c3)n1)C[C@H](c1ccccc1)CC2 (stereo partly drawn) [Compound 138, (1R,4r)-4-((1R)-1-(((6R)-4-(((1R)-2-((1R,5S)-6-hydroxy-3-azabicyclo[3.1.1]heptan-3-yl)-1-(1-methyl-1H-pyrazol-4-yl)ethyl)amino)-6-phenyl-5,6,7,8-tetrahydroquinazolin-2-yl)(methyl)amino)propyl)cyclohexane-1-carboxylic acid] | 734 | 101.929 % of ANP | 852 | 105.993 % of ANP | –
CC[C@@H](Nc1nc2c(c(N[C@@H](CN3CCC(F)CC3)c3cnn(C)c3)n1)C[C@H](c1ccccc1)CC2)[C@H]1CC[C@H](C(=O)O)CC1 [Compound 142, (1R,4r)-4-((R)-1-(((R)-4-(((R)-2-(4-fluoropiperidin-1-yl)-1-(1-methyl-1H-pyrazol-4-yl)ethyl)amino)-6-phenyl-5,6,7,8-tetrahydroquinazolin-2-yl)amino)propyl)cyclohexane-1-carboxylic acid] | – | 95.614 % of ANP | 901 | 107.815 % of ANP | 313
CC[C@H]([C@H]1CC[C@](F)(C(=O)O)CC1)N(C)c1nc2c(c(N[C@H](CN3CCC[C@H](C)C3)c3cnn(C)c3)n1)C[C@H](c1ccccc1)CC2 [Compound 82, (1S,4s)-1-fluoro-4-((R)-1-(methyl((R)-4-(((S)-1-(1-methyl-1H-pyrazol-4-yl)-2-((S)-3-methylpiperidin-1-yl)ethyl)amino)-6-phenyl-5,6,7,8-tetrahydroquinazolin-2-yl)amino)propyl)cyclohexane-1-carboxylic acid] | – | 106.556 % of ANP | 272 | 96.493 % of ANP | 278
